Columns and labels:
5-HT2A receptor [1] = target: T1, 5-HT2A receptor (Homo sapiens (Human), UniProt P28223); format: cell-based; conditions: Ca^2+ flux, HEK293
Protocol: (§1) Functional Assays at 5-HT2A, 5-HT2B, and 5-HT1A. Agonist activity at 5-HT2A, 5-HT2B, and 5-HT1A receptors was determined using a FLIPR Ca^2+ flux assay at WuXi AppTec (Hong Kong) Limited according to their standard protocols. Briefly, stably transfected cells expressing the receptor of interest (HEK293 for 5-HT2A and 5-HT2B; CHO cells for 5-HT1A) were grown and plated in a 384 well plate and incubated at 37° C. and 5% CO2 overnight. A solution of 250 mM probenecid in 1 mL FLIPR assay buffer was prepared fresh. This was combined with a fluorescent dye (Fluo-4 Direct™) to make a final assay concentration of 2.5 mM. […] The fluorescent dye was then added to the assay plate along with assay buffer to a final volume of 40 μL. The cell plate was incubated for 50 min at 37° C. and 5% CO2 and placed into the FLIPR Tetra along with the compound plate. 10p L of references and compounds were then transferred from the compound plate into the cell plate and the fluorescent signal was read.

5-HT2B receptor = 5-HT2B receptor (Homo sapiens (Human), UniProt P41595); assay: FLIPR Ca^2+ flux agonist assay at 5-HT2B; format: cell-based; conditions: HEK293
Protocol: as §1

5-HT1A receptor = 5-HT1A receptor (Homo sapiens (Human), UniProt P08908); assay: FLIPR Ca^2+ flux agonist assay at 5-HT1A; format: cell-based; conditions: CHO cells
Protocol: as §1

5-HT1B receptor = 5-HT1B receptor (Homo sapiens (Human), UniProt P28222); assay: cAMP accumulation agonist assay at 5-HT1B; format: cell-based
Protocol: Functional Assay at 5-HT1B. Agonist activity at 5-HT1B was determined using a cAMP accumulation protocol at WuXi AppTec (Hong Kong) Limited according to their standard protocols. Briefly, stably transfected cells were plated in an OptiPlate-384 well plate, incubated at RT for 60 mins, and cAMP standard solution (800 nM, 10 μL) was added to the blank well. Then, 10 μL detection reagent was added to each well, the plate incubated for 60 mins at RT, and the plate read using EnVision.

[2] = Metabolic stability in human liver microsomes (HLM); format: in vitro ADME; conditions: both sexes, human, pooled human liver microsomes, pH 7.4, NADPH
Text: HLM Stability. Pooled HLM from adult male and female donors (Corning 452117) were used.

[3] = Metabolic stability in mouse liver microsomes (MLM); format: in vitro ADME; conditions: mouse, pooled mouse liver microsomes, pH 7.4, MLM (CD-1), NADPH
Text: MLM Stability Pooled MLM from CD-1 mice (BIOIVT M00501) were used.

[4] = Metabolic stability in rat liver microsomes (RLM); format: in vitro ADME; conditions: both sexes, rat, pooled rat liver microsomes, pH 7.4, NADPH
human 5-HT2C receptor = human 5-HT2C receptor (Homo sapiens (Human), UniProt P28335); format: cell-based; conditions: Ca^2+ flux
5-HT2A receptor [5] = target: T1, 5-HT2A receptor; format: cell-based; conditions: beta-arrestin recruitment
Protocol: The degree of arrestin bias varied substantially across the other compounds tested as well.
Arrestin Functional Assay at 5-HT2A. Recruitment of beta-arrestin was determined using a PathHunter assay at Eurofins DiscoverX (Fremont, CA) according to their standard protocols. PathHunter GPCR beta-arrestin assays take advantage of DiscoverX's proprietary Enzyme Fragment Complementation technology. The GPCR is fused in frame with a small enzyme donor fragment ProLink™ (PK) and co-expressed in cells stably expressing a fusion protein of beta-arrestin and the larger, N-terminal deletion mutant of beta-galactosidase. Activation of the GPCR (5-HT2A receptor in this case) stimulates binding of beta-arrestin to the PK-tagged GPCR and forces complementation of the two enzyme fragments, resulting in the formation of an active beta-galactosidase enzyme. This interaction leads to an increase in enzyme activity that can be measured using chemiluminescent PathHunter Detection Reagents. Briefly, PathHunter cells expressing 5-HT2A receptors were seeded in a volume of 20 μL into 384-well plates and incubated at 37° C. for the appropriate time prior to testing. […] Plates were then imaged on a microplate reader and the agonist activity was calculated using the following formula: % Activity=100%×(mean RLU of test sample−mean RLU of vehicle control)/(mean MAX control ligand−mean RLU of vehicle control), where RLU=relative light units.

C57BL/6 mice = assay: Mouse head twitch response (HTR) assay; format: in vivo; conditions: mouse HTR, SC; for # HTR at Most Efficacious Dose / Emax (95% CI): 20 min observation; for Emax (95% CI): curve fit
Protocol: Agonists of the 5-HT2A receptor are well known to induce this effect in rodents and the potency of this HTR is correlated with hallucinogenic potency in humans.
Animals. Adult male C57BL/6 mice, aged 6-8 weeks (body weight 20-25 g) were used in this experiment. Animals were housed under controlled temperatures and 12-hour light/dark cycles (lights on between 07:00-19:00 h), with ad libitum food and water. This study was carried out in strict accordance with the requirements of the Committee for the Purpose of Control and Supervision of Experiments on Animals (CPCSEA), India. All efforts were made to minimize suffering.
Drugs and Drug Administration. Compound 1 was synthesized as described above. It was administered subcutaneously (SC) dissolved in saline vehicle at a volume of 10 mL/kg. Five doses were tested, with n=6 animals/group. Doses were calculated on the basis of the freebase.
Procedure. Mice were administered one dose of the drug and immediately placed into a small open field for behavioral observation. Animals were observed continuously for 20 mins and the number of head twitches (HTs) were counted by an observer blind to the treatment condition.
Statistical Analysis. The data points shown are the mean±standard error of the mean (SEM). Analysis was performed using GraphPad Prism 6. Curves were fit using a non-linear gaussian distribution to calculate ED50 and Emax values.
Additional disclosed compounds were tested in the mouse head twitch response (HTR) assay according to the procedure described in Example 34. […] Lastly, compounds with much larger benzyl and phenethyl substituents on the amine nitrogen (e.g., 10 and 11) were low efficacy in this assay, consistent with their lower maximal efficacy in the arrestin functional assay (see Example 32).

Chain of human 5-HT2C receptor (P28335 33-458 limits assumed): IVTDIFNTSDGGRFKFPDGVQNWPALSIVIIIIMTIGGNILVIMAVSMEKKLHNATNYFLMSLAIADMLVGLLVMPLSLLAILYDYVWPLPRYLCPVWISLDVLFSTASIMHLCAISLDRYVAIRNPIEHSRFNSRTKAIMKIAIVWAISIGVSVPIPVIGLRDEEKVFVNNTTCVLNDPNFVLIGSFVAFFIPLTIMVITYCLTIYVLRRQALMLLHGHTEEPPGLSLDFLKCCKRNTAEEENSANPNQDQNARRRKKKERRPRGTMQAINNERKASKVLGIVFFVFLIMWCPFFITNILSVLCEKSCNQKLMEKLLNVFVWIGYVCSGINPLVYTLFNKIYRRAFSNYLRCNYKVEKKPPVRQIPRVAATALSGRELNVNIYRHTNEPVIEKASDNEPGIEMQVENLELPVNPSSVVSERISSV
Chain of 5-HT2B receptor (P41595 whole entry, looked up): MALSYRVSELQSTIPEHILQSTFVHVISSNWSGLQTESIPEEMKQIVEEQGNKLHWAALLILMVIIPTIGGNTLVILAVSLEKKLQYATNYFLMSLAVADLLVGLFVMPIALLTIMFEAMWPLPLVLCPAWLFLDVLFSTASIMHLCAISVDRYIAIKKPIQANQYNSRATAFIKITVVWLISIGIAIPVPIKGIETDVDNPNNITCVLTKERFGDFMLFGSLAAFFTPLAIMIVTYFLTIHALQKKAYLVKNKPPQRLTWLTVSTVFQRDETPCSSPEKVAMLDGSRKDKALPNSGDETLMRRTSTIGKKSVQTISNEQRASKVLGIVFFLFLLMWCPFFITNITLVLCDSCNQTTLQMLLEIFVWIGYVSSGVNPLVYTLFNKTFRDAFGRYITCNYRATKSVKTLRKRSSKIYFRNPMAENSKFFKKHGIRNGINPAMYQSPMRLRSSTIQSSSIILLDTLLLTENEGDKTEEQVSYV
Chain of 5-HT1B receptor (P28222 whole entry, looked up): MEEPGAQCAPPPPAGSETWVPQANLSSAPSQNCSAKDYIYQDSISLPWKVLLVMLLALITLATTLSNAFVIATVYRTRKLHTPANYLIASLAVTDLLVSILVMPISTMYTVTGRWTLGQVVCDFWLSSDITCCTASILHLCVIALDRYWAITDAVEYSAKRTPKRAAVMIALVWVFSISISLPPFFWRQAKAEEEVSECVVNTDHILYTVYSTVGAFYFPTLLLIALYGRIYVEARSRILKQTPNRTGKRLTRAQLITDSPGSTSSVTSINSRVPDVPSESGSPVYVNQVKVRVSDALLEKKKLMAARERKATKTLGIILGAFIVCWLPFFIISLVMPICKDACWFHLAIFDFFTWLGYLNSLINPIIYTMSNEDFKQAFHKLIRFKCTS

CCN(CC)C(=O)[C@@H]1C=C2c3cccc4[nH]cc(c34)C[C@H]2N(CCc2cccc(OC)c2)C1 [Compound 20, (6aR,9R)-N,N-diethyl-7-(3-methoxyphenethyl)-4,6,6a,7,8,9-hexahydroindolo[4,3-fg]quinoline-9-carboxamide]
5-HT2A % Act @ Max Dose (5-HT2A receptor [1]): 77.19% | 5-HT2B % Act @ Max Dose (5-HT2B receptor): 3.60% | 5-HT1A % Act @ Max Dose (5-HT1A receptor): 3.85% | 5-HT1B % Act @ Max Dose (5-HT1B receptor): 34.59% | half-life at 1 μM [2]: 2.1 min | half-life at 1 μM [3]: 0.9 min | half-life at 1 μM [4]: 1.2 min

CCN(CC)C(=O)[C@@H]1C=C2c3cccc4[nH]cc(c34)C[C@H]2N(CCc2ccc(OC)cc2)C1 [Compound 21, (6aR,9R)-N,N-diethyl-7-(4-methoxyphenethyl)-4,6,6a,7,8,9-hexahydroindolo[4,3-fg]quinoline-9-carboxamide]
5-HT2A % Act @ Max Dose (5-HT2A receptor [1]): 51.23% | 5-HT2B % Act @ Max Dose (5-HT2B receptor): 1.73% | 5-HT1A % Act @ Max Dose (5-HT1A receptor): 8.2% | 5-HT1B % Act @ Max Dose (5-HT1B receptor): 79.13% | half-life at 1 μM [2]: 3.8 min | half-life at 1 μM [3]: 1.9 min | half-life at 1 μM [4]: 4.3 min

CC[C@@H](C)NC(=O)[C@@H]1C=C2c3cccc4[nH]cc(c34)C[C@H]2N(C)C1 [Int8, (6aR,9R)-N-((R)-sec-butyl)-7-methyl-4,6,6a,7,8,9-hexahydroindolo[4,3-fg]quinoline-9-carboxamide]
5-HT2A % Act @ Max Dose (5-HT2A receptor [1]): 96.25% | 5-HT2B % Act @ Max Dose (5-HT2B receptor): 17.7% | 5-HT2C % Act @ Max Dose (human 5-HT2C receptor): 98.245% | 5-HT1A % Act @ Max Dose (5-HT1A receptor): 90.25% | 5-HT2A Arrestin % Act @ Max Dose (5-HT2A receptor [5]): 46.06% | agonist type in the 5-HT2A arrestin recruitment assay, in words (5-HT2A receptor [5]): partial agonists | Most Efficacious Dose (C57BL/6 mice): (1 mg/kg) | # HTR at Most Efficacious Dose (C57BL/6 mice): 13.5 | Emax (95% CI) (C57BL/6 mice): 14.34 | half-life at 1 μM [2]: 64.9 min | half-life at 1 μM [3]: 39.9 min | half-life at 1 μM [4]: 99.5 min

CCN(CC)C(=O)[C@@H]1C=C2c3cccc4[nH]cc(c34)C[C@H]2N(Cc2ccccn2)C1 [Compound 22, (6aR,9R)-N,N-diethyl-7-(pyridin-2-ylmethyl)-4,6,6a,7,8,9-hexahydroindolo[4,3-fg]quinoline-9-carboxamide]
5-HT2A % Act @ Max Dose (5-HT2A receptor [1]): 64.47% | 5-HT2B % Act @ Max Dose (5-HT2B receptor): 7.74% | 5-HT1A % Act @ Max Dose (5-HT1A receptor): 57.33% | 5-HT1B % Act @ Max Dose (5-HT1B receptor): 89.15% | half-life at 1 μM [2]: 23.8 min | half-life at 1 μM [3]: 9.2 min | half-life at 1 μM [4]: 13.2 min

C=CCN1C[C@H](C(=O)N[C@H](C)CC)C=C2c3cccc4[nH]cc(c34)C[C@H]21 [Compound 8, (6aR,9R)-7-allyl-N-((R)-sec-butyl)-4,6,6a,7,8,9-hexahydroindolo[4,3-fg]quinoline-9-carboxamide]
5-HT2A % Act @ Max Dose (5-HT2A receptor [1]): 99.25% | 5-HT2B % Act @ Max Dose (5-HT2B receptor): 91.56% | 5-HT2C % Act @ Max Dose (human 5-HT2C receptor): 108.26% | 5-HT1A % Act @ Max Dose (5-HT1A receptor): 116.41% | 5-HT2A Arrestin % Act @ Max Dose (5-HT2A receptor [5]): 112.42% | agonist type in the 5-HT2A arrestin recruitment assay, in words (5-HT2A receptor [5]): full agonists | Most Efficacious Dose (C57BL/6 mice): (1 mg/kg) | # HTR at Most Efficacious Dose (C57BL/6 mice): 15.75 | Emax (95% CI) (C57BL/6 mice): 12.03 | half-life at 1 μM [2]: 7.9 min | half-life at 1 μM [3]: 3.7 min | half-life at 1 μM [4]: 7.7 min

CCC[C@@H](C)NC(=O)[C@@H]1C=C2c3cccc4[nH]cc(c34)C[C@H]2N(CCC)C1 [Compound 7, (6aR,9R)-N-((R)-pentan-2-yl)-7-propyl-4,6,6a,7,8,9-hexahydroindolo[4,3-fg]quinoline-9-carboxamide]
5-HT2A % Act @ Max Dose (5-HT2A receptor [1]): 94.52% | 5-HT2B % Act @ Max Dose (5-HT2B receptor): 94.75% | 5-HT2C % Act @ Max Dose (human 5-HT2C receptor): 114.78% | 5-HT1A % Act @ Max Dose (5-HT1A receptor): 107.16% | 5-HT2A Arrestin % Act @ Max Dose (5-HT2A receptor [5]): 110.2% | agonist type in the 5-HT2A arrestin recruitment assay, in words (5-HT2A receptor [5]): full agonists | Most Efficacious Dose (C57BL/6 mice): (1 mg/kg) | # HTR at Most Efficacious Dose (C57BL/6 mice): 16.667 | Emax (95% CI) (C57BL/6 mice): 720.4 | half-life at 1 μM [2]: 1.65 min | half-life at 1 μM [3]: 0.541 min | half-life at 1 μM [4]: 1.61 min

CCC[C@@H](C)NC(=O)[C@@H]1C=C2c3cccc4[nH]cc(c34)C[C@H]2N(C)C1 [Int17, (6aR,9R)-7-methyl-N-((R)-pentan-2-yl)-4,6,6a,7,8,9-hexahydroindolo[4,3-fg]quinoline-9-carboxamide]
5-HT2A % Act @ Max Dose (5-HT2A receptor [1]): 91.47% | 5-HT2B % Act @ Max Dose (5-HT2B receptor): 25.49% | 5-HT2C % Act @ Max Dose (human 5-HT2C receptor): 102.19% | 5-HT1A % Act @ Max Dose (5-HT1A receptor): 113.04% | 5-HT2A Arrestin % Act @ Max Dose (5-HT2A receptor [5]): 38.809% | agonist type in the 5-HT2A arrestin recruitment assay, in words (5-HT2A receptor [5]): partial agonists | Most Efficacious Dose (C57BL/6 mice): (0.32 mg/kg) | Emax (95% CI) (C57BL/6 mice): 4.96 | half-life at 1 μM [2]: 15.9 min | half-life at 1 μM [3]: 8.25 min | half-life at 1 μM [4]: 27.9 min

CCC(CC)NC(=O)[C@@H]1C=C2c3cccc4[nH]cc(c34)C[C@H]2N(C)C1 [Int14, (6aR,9R)-7-methyl-N-(pentan-3-yl)-4,6,6a,7,8,9-hexahydroindolo[4,3-fg]quinoline-9-carboxamide]
5-HT2A % Act @ Max Dose (5-HT2A receptor [1]): 93.33% | 5-HT2B % Act @ Max Dose (5-HT2B receptor): 9.84% | 5-HT2C % Act @ Max Dose (human 5-HT2C receptor): 99.149% | 5-HT1A % Act @ Max Dose (5-HT1A receptor): 102.46% | 5-HT2A Arrestin % Act @ Max Dose (5-HT2A receptor [5]): 44.377% | agonist type in the 5-HT2A arrestin recruitment assay, in words (5-HT2A receptor [5]): partial agonists | Most Efficacious Dose (C57BL/6 mice): (1 mg/kg) | # HTR at Most Efficacious Dose (C57BL/6 mice): 10.5 | Emax (95% CI) (C57BL/6 mice): 21.63 | half-life at 1 μM [2]: 17.6 min | half-life at 1 μM [3]: 6.07 min | half-life at 1 μM [4]: 38 min

— patent publication US20240368151A1, “NOVEL ERGOLINES AND METHODS OF TREATING MOOD DISORDERS” (priority 2021, published 2024)
